Test results: patent publication US6841661B2, “Glycopeptide antibacterial compounds, compositions containing same and methods of using same” (Princeton Univerisity, priority 1999, dated 2005)
In brackets after ≈: the same amount, converted by molar mass.

Assays:
[1] = tested on: E. faecium CL 4931 (VanA); assay: microbe, parasite or virus in culture; type: cell-based; conditions: for MIC, CL4931: E. faecium CL 4931 (VanA)
In short: (§1)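 NCCLS M7-A4-based broth microdilution with twofold serial dilutions, incubated at 35° C; medium BHI for enterococci and VISA/MRSA, cation-adjusted Mueller-Hinton for E. coli. Inoculum about 1-5×10^6 CFU/ml (enterococci) or 3-7×10^5 CFU/ml (others); MIC is lowest concentration with no visible growth, read at 18-20 hr for E. coli, 22-24 hr otherwise.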

[2] = tested on: E. faecium CL 5242 (VanA); assay: microbe, parasite or virus in culture; type: cell-based; conditions: for MIC, CL5242: E. faecium CL 5242 (VanA)
In short: as §1

E. coli ASP #49 (envA-) = assay: In vitro MIC panel assay (NCCLS broth microdilution); type: cell-based; conditions: Escherichia coli
Source text: (§2) National Committee for Clinical Laboratory Standards (NCCLS) guidelines [Methods for Dilution Antimicrobial Susceptibility Tests for Bacteria that Grow Aerobically-Fourth Edition; Approved Standard (NCCLS Document M7-A4, January 1997)] are used to establish the assay, although variations are made to optimize the published method according to the specific needs of the present investigation.
(§3) The test panel currently includes eight enterococci and 13 staphylococci, which are selected based upon their antibiotic susceptibility profiles. The methicillin-sensitive Staphylococcus aureus (MSSA) strain MB2985 (Smith isolate) is used to assesses the potential for serum protein binding of the compounds. The paired Gram-negative strains ASP #49 (envA-) and ASP #50 (envA+) (M. Salvatore/N. Lee) are included to judge membrane effects. Table 3 presents a detailed description of the strains included in the panel, including some of the sources of the strains of bacteria.
(§4) The glycopeptide antibiotic teicoplanin is included whenever possible.
(§5) TSB, containing 10% HS* for vancomycin intermediate S. aurcus/methicillin-resistant S. aureus (VISA/MRSA) strains, is inoculated from an appropriate source (frozen broth or agar slant) and grown approximately 17 hr at 35° C. with shaking at 220 rpm. Cultures are grown in tubes with a volume of 5 ml for enterococci and 2 ml for all other strains.
(§6) Four milliliter (4 ml) overnight culture is added to 36 ml physiological saline to obtain tenfold dilutions (enterococci). Overnight culture (0.4 ml) is added to 39.6 ml saline to obtain 100-fold dilutions (all strains except enterococci). Diluted cultures are maintained on ice until time of inoculation of test plates.
(§7) The number of CFU/mL is determined on BHI agar plates, although this is not done routinely because titers of overnight cultures are relatively constant. The test media include: • BHI for enterococci and VISA/MRSA; • MH II (i.e., cation-adjusted Mueller-Hinton broth) for MRS, MSS and E. coli.; • MH II+HSA for MSSA is prepared as follows: • a. 2×MHII+86mg/ml HSA • b. Dissolve 4.3 g HSA in 50 ml autoclaved 2x MH II. • c. pH to 7.0 by adding 2M MOPS, sodium. • d. Filter sterilize using 0.22 μm Coming cellulose acetate filter, used because of reported low protein binding. • e. 1×MH II+43 mg/ml HSA • f. Dilute the 2×medium twofold and filter as above. 5.8.6. Preparation of Test Plates
(§8) Using a Denley liquid handling system (or similar automatic device), 100 μ1×medium is added to each well in columns 2-12 of a 96-well microtiter dish. Using a multichannel pipettor, 100 μl 2×medium is added to each well in column 1. Plates may be filled on the day prior to assay, wrapped in plastic bags and refrigerated.
(§9) Vancomycin, Schering 29482, and teicoplanin are prepared on a weight per volume basis using 10 mM 3-(N-morpholino)propane-sulfonic acid (MOPS) buffer pH 7. Test compounds are received in solution in appropriate solvent (typically as 1 mg/ml in DMSO) or are dissolved in appropriate solvent prior to further dilution in 10 mM MOPS buffer, ph7. Consistent with NCCLS guidelines, antibiotics are handled aseptically but are not otherwise sterilized.
(§10) 100 μl appropriately diluted antibiotic solution is added to the first well of the designated row of the 96-well microtiter dish and serially diluted by twofold across the row using the Denley liquid handling system. With the aid of a Dynatech NEC 2000 inoculator, each well of the microtiter dish is inoculated with 1.5 μl diluted overnight culture, yielding approximately 1-5×10^6 CFU/ml for enterococci and approximately 3-7×10^5 CFU/ml for all other strains. Dishes are placed in stacks of no more than five, wrapped in plastic bags and incubated at 35° C. • Indication of result(s) type (% INH, IC50, Zone size, etc.) • MIC=minimum inhibitory concentration ps 5.8.9. Interpretation of the Results on the Basis of Activity […]

[3] = tested on: E. faecalis CL 5244 (VanB); assay: as above; type: cell-based; conditions: Enterococcus faecalis
Source text: as §2, §3, §4, §5, §6, §7, §8, §9, §10

[4] = tested on: E. gallinarum CL 4886 (VanC); assay: as above; type: cell-based; conditions: Enterococcus gallinarum
Source text: as §2, §3, §4, §5, §6, §7, §8, §9, §10

[5] = tested on: E. faecalis CL 4877 (VanB); assay: microbe, parasite or virus in culture; type: cell-based; conditions: for MIC, CL4877: E. faecalis CL 4877 (VanB)
In short: as §1

[6] = tested on: MSSA MB2985 (Smith isolate); assay: In vitro MIC panel assay, without and with Human Serum Albumin; type: cell-based, Staphylococcus aureus
Source text: as §2, §3
(§11) The glycopeptide antibiotic teicoplanin is included whenever possible. […]
(§12) The number of CFU/mL is determined on BHI agar plates, although this is not done routinely because titers of overnight cultures are relatively constant. […]

MRSA MH 76 = assay: In vitro MIC panel assay (NCCLS broth microdilution); type: cell-based, Staphylococcus aureus; conditions: Staphylococcus aureus, MRSA
Source text: as §2, §3, §11, §12

VISA/MRSA CL 5705 = assay: as above; type: cell-based, S. aureus; conditions: Staphylococcus aureus
Source text: as §2, §3, §11, §12

VISA/MRSA CL 5706 = assay: as above; type: cell-based, S. aureus; conditions: Staphylococcus aureus
Source text: as §2, §3, §11, §12

[7] = tested on: Staphylococcus aureus strain MB2985; assay: In vivo mouse methicillin-sensitive Staphylococcus aureus septicemia protection; design: species or system ICR female mice
Description: Selected compounds of the invention are tested in an in vivo mouse model. Single dose subcutaneous antibiotic protection from septicemic infections is measured as described by Gill, C. J., J. J. Jackson, L. Gerckens, B. Pelak, R. Thompson, J. Sundelof, H. Kropp and H. Rosen. Antimicrob. Agents Chemother. 42:1996-2001 (1998). Survival is monitored for seven days. ED50's and LD50's are determined by the method of Knudsen and Curtis. J. Am. Stat. Assoc. 42:282-296 (1947). Septicemia is induced in 20 gram ICR (derived from CD-I) female mice by intraperitoneal infection with Staphylococcus aureus strain MB2985. Infection is given i.p. in Brain Heart Broth (BHB) at an infectious inoculum of 1.8×10^7 cfu/mouse. Drug is administered subcutaneously immediately after the infection is initiated.

% Plasma Bound = type: in vitro ADME
[8] = mouse septicemia, S. aureus 2985 i.p. 1.8 × 10^7 cfu/mouse, single s.c. dose at 0 hr, survival seven days

CN[C@H](CC(C)C)C(=O)N[C@H]1C(=O)N[C@@H](CC(N)=O)C(=O)N[C@H]2C(=O)N[C@H]3C(=O)N[C@H](C(=O)N[C@H](C(=O)O)c4cc(O)cc(O)c4-c4cc3ccc4O)[C@H](O)c3ccc(c(Cl)c3)Oc3cc2cc(c3O[C@@H]2O[C@H](CO)[C@@H](O)[C@H](O)[C@H]2O[C@H]2C[C@](C)(N)[C@H](O)[C@H](C)O2)Oc2ccc(cc2Cl)[C@H]1O [Vancomycin, vancomycin, reference compound]
MIC ([1]; Enterococcus faecium): 2050 µg/mL (≈ 1410 µM) | MIC, CL4931 ([1]; Table 9): 2050 µg/mL (≈ 1410 µM) | MIC, CL4931 ([1]; Table 10): 2050 µg/mL (≈ 1410 µM) | CL4931 (in vitro testing) ([1]; Tables 7 and 8, unit not given): 2048 | MIC ([2]; Enterococcus faecium): 128 µg/mL (≈ 88.3 µM) | MIC, CL5242 ([2]; Table 9): 512 µg/mL (≈ 353 µM) | MIC, CL5242 ([2]; Table 10): 512 µg/mL (≈ 353 µM) | CL5242 (in vitro testing) ([2]; Tables 7 and 8, unit not given): 512 | MIC (E. coli ASP #49 (envA-)): 32 µg/mL (≈ 22.1 µM) | MIC [3]: 32 µg/mL (≈ 22.1 µM) | MIC [4]: 16 µg/mL (≈ 11 µM) | MIC ([5]; Enterococcus faecalis): 2050 µg/mL (≈ 1410 µM) | MIC, CL4877 ([5]; Table 9): 2050 µg/mL (≈ 1410 µM) | MIC, CL4877 ([5]; Table 10): 2050 µg/mL (≈ 1410 µM) | CL4877 (in vitro testing) ([5]; Tables 7 and 8, unit not given): 2048 | MIC ([6]; MSSA MB2985 + HSA, MH II broth ctg. 43 mg/ml Human Serum Albumin Frac. V): 1 µg/mL | N-fold MIC inc. + HSA ([6]; MSSA MB2985, MIC with HSA relative to without): (1) fold | MIC (MRSA MH 76): 1 µg/mL (≈ 0.69 µM) | MIC (VISA/MRSA CL 5705): 2 to 4 µg/mL (≈ 1.38 to 2.76 µM) | MIC (VISA/MRSA CL 5706): 4 to 8 µg/mL (≈ 2.76 to 5.52 µM) | ED50/MIC ([7]; S. aureus 2985, ratio of s.c. ED50 to MIC): 2.33 | ED50 ([7]; Staphylococcus aureus, MB2985, mouse septicemia, S. aureus 2985 i.p. 1.8 × 10^7 cfu/mouse, single s.c. dose at 0 hr, survival seven days): 1.17 mg/kg | ED0 (s.c.) [7, 8]: ≦0.195 mg/kg | ED100 (s.c.) [7, 8]: 3.125 mg/kg | % Plasma Bound (% Plasma Bound): 55%
